Source: PMC10258794, “To Fold or Not to Fold: Diastereomeric Optimization of an α-Helical Antimicrobial Peptide” (Journal of Medicinal Chemistry, 2023)
Values after ≈ are worked out from the molar mass of the structure shown. Like-named read-outs stand apart in the source and are kept apart here.

What was measured:
[1] = tested on: Staphylococcus epidermis; test: MIC broth microdilution, Staphylococcus epidermis; type: cell-based
Procedure, shortened: (§1)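 MTT read-out: lowest concentration with no visible growth (yellow wells, unaided eye) taken as MIC. Inoculum ~5 × 10^5 CFU in MH pH 7.4 from OD600 0.022 dilution; 2-fold compound series; 16–20 h, 37 °C, no shaking.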

[2] = tested on: S. aureus Newman; test: microbe, parasite or virus in culture; settings: Staphylococcus aureus, pH 7.4, read-out: MIC S. aureus Newman
[3] = tested on: HEK293 cells; test: Alamar blue cytotoxicity, HEK293; type: cell-based, human; settings: 24 h, mean ± SD, n = 3, read-out: Toxicity on HEK293 cells
Procedure, shortened: (§2)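 Viability read by AlamarBlue fluorescence (560/590 nm) after 3–5 h with 10% reagent, relative to untreated controls. Beforehand, cells got rising compound doses for 24 h at 37 °C; seeding was 8000/well for A549 in RPMI-1640 and 4000/well for HEK293 in DMEM.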

[4] = tested on: P. aeruginosa ZEM9A; test: microbe, parasite or virus in culture; type: cell-based, Pseudomonas aeruginosa; settings: pH 7.4
Procedure, shortened: as §1

[5] = tested on: K. pneumoniae Oxa-48; test: MIC broth microdilution, K. pneumoniae Oxa-48; type: cell-based, Klebsiella pneumoniae; settings: MDR strain; MH broth pH 7.4, 16–20 h, 37 °C
Procedure, shortened: as §1

[6] = tested on: P. aeruginosa PAO1; test: Time-killing kinetic assay; type: cell-based, Pseudomonas aeruginosa; settings: P. aeruginosa PAO1, 4 × MIC, pH 7.4
Method: A single colony of P. aeruginosa PAO1 was picked and grown overnight with shaking (180 rpm) in LB (Sigma-Aldrich, Buchs, Switzerland) medium 5 mL overnight at 37 °C. The overnight bacterial culture was diluted to OD600 0.002 (2 × 10^6 CFU/mL) in fresh MH medium. Stock solutions of AMPs in sterilized milliQ water were prepared in 1 mg/mL and were diluted to two times more than required concentration in fresh MH (Sigma-Aldrich, Buchs, Switzerland) medium at pH 7.4. 100 μL of prepared bacteria solution in MH and 100 μL of samples in MH were mixed in a 96-well microtiter plate (TPP, untreated, Corning Incorporated, Kennebunk, USA). Untreated bacteria at 1 × 10^6 CFU/mL were used as a growth control. 96-well microtiter plates were incubated in 37 °C with shaking (180 rpm). Surviving bacteria were quantified at 0, 0.5, 1, 2, 3, 4, 5, and 6 h by plating 10-fold dilutions of the sample in sterilized normal saline on LB agar plates. LB agar plates were incubated at 37 °C for 10 h, and the number of individual colonies was counted at each timepoint. The assay was performed in triplicate in the biosafety level 2 lab.

[7] = tested on: A549 cells; test: Alamar blue cytotoxicity, A549; type: cell-based, human; settings: 24 h, mean ± SD, n = 3, read-out: Toxicity on A549 lung cancern cells
Procedure, shortened: as §2

[8] = tested on: S. aureus Newman
[9] = 24 h, […] human serum in TRIS buffer pH 7.4, 37 °C
Method: Human serum was diluted in 0.1 M filtered TRIS buffer (pH 7.4) (25%, 1:3, v/v). Selected peptides were diluted in 0.1 M filtered TRIS buffer (pH 7.4) to a concentration of 400 μM, and 0.1 mg/mL 4- hydroxybenzoic acid was added as an internal standard. Aliquots of peptide solution (50 μL) were added to aliquots of serum (50 μL) in sterile Eppendorf tubes, to reach a peptide concentration of 200 μM during the assay. Samples were incubated at 37 °C under gentle stirring (350 rpm). Different samples (triplicates) were quenched at different time points (0/1/6/12/24 h) by precipitating serum proteins through the addition of ZnSO4·7 H2O/ACN (1:1) (0.1 M, 100 μL) and cooling in ice bath for 10 min. Protein precipitates were pelleted under centrifugation, and supernatants were then sampled and analyzed by LC–MS. Experiment controls included two references, one known to be degraded and one known to be undegraded. Peaks corresponding to the internal standard and the undegraded peptides were integrated, with the ratio peptide/standard at t = 0 h as 100%.

[10] = tested on: Stenotrophomonas maltophilia; test: microbe, parasite or virus in culture; type: cell-based; settings: pH 7.4
Procedure, shortened: as §1

[11] = tested on: P. aeruginosa ZEM-1A; test: microbe, parasite or virus in culture; settings: pH 7.4
Procedure, shortened: as §1

[12] = tested on: PA14 2P4 (pmrB); test: microbe, parasite or virus in culture; settings: supplementary CSV
Procedure, shortened: as §1

[13] = tested on: PA14 4.18 (pmrB); test: microbe, parasite or virus in culture; settings: supplementary CSV
Procedure, shortened: as §1

[14] = tested on: P. aeruginosa PA14; test: microbe, parasite or virus in culture
Procedure, shortened: as §1

[15] = tested on: Enterobacter cloacae; test: microbe, parasite or virus in culture; settings: pH 7.4
Procedure, shortened: as §1

[16] = tested on: Burkolderia cenocepacia; test: microbe, parasite or virus in culture
[17] = tested on: PA14 4.13 (phoQ); test: microbe, parasite or virus in culture; settings: supplementary CSV
Procedure, shortened: as §1

[18] = tested on: Pseudomonas aeruginosa, Klebsiella pneumoniae, Acinetobacter baumannii, Escherichia coli, and methicillin-resistant Staphylococcus aureus; settings: summary of Table 1
Procedure, shortened: as §1

[19] = tested on: S. aureus COL MRSA
Procedure, shortened: as §1

[20] = tested on: E. coli W3110; settings: MH broth pH 7.4, 16–20 h, 37 °C
Procedure, shortened: as §1

[21] = tested on: K. pneumoniae NCTC418
Procedure, shortened: as §1

[22] = tested on: A. baumannii ATCC19606; settings: MH broth pH 7.4, 16–20 h, 37 °C
Procedure, shortened: as §1

[23] = tested on: P. aeruginosa PAO1
Procedure, shortened: as §1

[24] = MH broth pH 7.4, 16–20 h, 37 °C
[25] = supplementary CSV, ranges of Table 1 given as one number

## CN[C@H](CC(C)C)C(=O)N[C@H]1C(=O)N[C@@H](CC(N)=O)C(=O)N[C@H]2C(=O)N[C@H]3C(=O)N[C@H](C(=O)N[C@H](C(=O)O)c4cc(O)cc(O)c4-c4cc3ccc4O)[C@H](O)c3ccc(c(Cl)c3)Oc3cc2cc(c3O[C@@H]2O[C@H](CO)[C@@H](O)[C@H](O)[C@H]2O[C@H]2C[C@](C)(N)[C@H](O)[C@H](C)O2)Oc2ccc(cc2Cl)[C@H]1O [Vancomycin, vancomycin, reference compound]
[1]; Staphylococcus, pH 7.4, read-out: MIC Staphylococcus epidermis
  MIC: 0.5 µg/mL (≈ 0.345 µM)
[2]
  MIC: 0.5 µg/mL (≈ 0.345 µM)

## CC(C)C[C@H](NC(=O)[C@H](CCCCN)NC(=O)[C@H](N)CCCCN)C(=O)N[C@@H](CC(C)C)C(=O)N[C@@H](CCCCN)C(=O)N[C@@H](CC(C)C)C(=O)N[C@@H](CC(C)C)C(=O)N[C@@H](CCCCN)C(=O)N[C@@H](CC(C)C)C(=O)N[C@@H](CC(C)C)C(=O)N[C@H](CC(C)C)C(N)=O [HP5]
[3]
  IC50: 93.2 ± 0.1 µM
[4]
  MIC ZEM9A: 4 µg/mL (≈ 3.03 µM)
[5]
  MIC K. pneumoniae Oxa-48: 2 µg/mL (≈ 1.51 µM)
[6]
  time to complete killing of bacteria: ≤ 1 h
[1]; pH 7.4
  MIC Staphylococcus epidermis: 2 µg/mL (≈ 1.51 µM)
[7]
  IC50: 18.9 ± 3.6 µM
[8]; [24]
  MIC S. aureus Newman: 2 µg/mL (≈ 1.51 µM)
[8]; supplementary CSV
  MIC S. aureus Newmann: 2 µg/mL (≈ 1.51 µM)
[9]
  serum stability: entirely stabilize
[10]
  MIC Stenotrophomonas maltophilia: 2 µg/mL (≈ 1.51 µM)
[11]
  MIC ZEM-1A: 2 µg/mL (≈ 1.51 µM)
[12]
  MIC P. aeruginosaPA14 2P4: 32 µg/mL (≈ 24.2 µM)
[13]
  MIC P. aeruginosa PA14 4.18: 16 µg/mL (≈ 12.1 µM)
[14]; [24]
  MIC PA14: 2 µg/mL (≈ 1.51 µM)
[14]; supplementary CSV
  MIC P. aeruginosa PA14: 2 µg/mL (≈ 1.51 µM)
[15]
  MIC Enterobacter cloacae: 2 µg/mL (≈ 1.51 µM)
[16]; MDR strain, MH broth pH 7.4, 16–20 h, 37 °C
  MIC Burkolderia cenocepacia: >64 µg/mL
[16]; supplementary CSV
  MIC B. cenocepacia: > 64 µg/mL
[17]
  MIC P. aeruginosa PA14 4.13: 4 µg/mL (≈ 3.03 µM)
[18]
  MIC, span over the five bacterial strains: 0.5 to 4 µg/mL
[19]; [24]
  MIC S. aureus COL MRSA: 2 µg/mL (≈ 1.51 µM)
[19]; [25]
  MIC S. aureus COL: 2 µg/mL (≈ 1.51 µM)
[20]
  MIC E. coli W3110: 0.5 µg/mL (≈ 0.378 µM)
[21]; [24]
  MIC K. pneumoniae NCTC418: 2 µg/mL (≈ 1.51 µM)
[21]; [25]
  MIC K. pneumoniae NCTC418: 2 µg/mL (≈ 1.51 µM)
[22]
  MIC A. baumannii ATCC19606: 0.5 µg/mL (≈ 0.378 µM)
[23]; [24]
  MIC P. aeruginosa PAO1: 2 µg/mL (≈ 1.51 µM)
[23]; [25]
  MIC P. aeruginosa PAO1: 2 µg/mL (≈ 1.51 µM)
